Measurements reported in patent publication US11167007B2, “FOXM1 modulators and uses thereof” (City of Hope, priority 2016, dated 2021).

Molecular target: T1, AR (Homo sapiens, UniProt P10275)
T1 sequence (P10275 1-920): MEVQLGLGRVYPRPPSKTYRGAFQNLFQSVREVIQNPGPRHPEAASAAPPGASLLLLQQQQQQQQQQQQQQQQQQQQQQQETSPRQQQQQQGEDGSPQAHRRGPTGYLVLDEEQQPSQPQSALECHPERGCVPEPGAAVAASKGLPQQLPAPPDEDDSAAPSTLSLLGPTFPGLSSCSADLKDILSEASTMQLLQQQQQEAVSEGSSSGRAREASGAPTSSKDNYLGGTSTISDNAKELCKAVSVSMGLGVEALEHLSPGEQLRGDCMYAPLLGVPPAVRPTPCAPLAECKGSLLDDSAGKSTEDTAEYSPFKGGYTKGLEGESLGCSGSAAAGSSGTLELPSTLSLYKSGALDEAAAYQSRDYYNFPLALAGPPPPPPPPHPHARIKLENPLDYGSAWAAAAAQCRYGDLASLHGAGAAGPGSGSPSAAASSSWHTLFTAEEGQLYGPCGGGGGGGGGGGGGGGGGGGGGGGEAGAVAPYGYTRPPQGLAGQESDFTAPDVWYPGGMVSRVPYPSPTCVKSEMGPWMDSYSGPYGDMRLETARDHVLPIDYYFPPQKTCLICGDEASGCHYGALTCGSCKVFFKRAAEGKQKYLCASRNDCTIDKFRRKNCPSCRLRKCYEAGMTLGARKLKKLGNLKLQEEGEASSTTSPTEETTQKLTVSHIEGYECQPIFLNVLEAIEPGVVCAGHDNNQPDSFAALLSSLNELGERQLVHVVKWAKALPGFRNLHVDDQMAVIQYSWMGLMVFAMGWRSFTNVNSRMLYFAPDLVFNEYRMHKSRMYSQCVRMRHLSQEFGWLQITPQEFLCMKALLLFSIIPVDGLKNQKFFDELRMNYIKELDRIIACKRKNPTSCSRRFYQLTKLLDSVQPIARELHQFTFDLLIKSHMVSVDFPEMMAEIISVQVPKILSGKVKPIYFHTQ
Assay: FRET-based AR conformation change reporter (CARY) in LNCaP C4 prostate cells
Assay type: cell-based
Design: Full length AR with cyan fluorescent protein (CFP) or yellow fluorescent protein (YFP) fused to either end (CARY); expressed in transfected cells
Settings: LNCaP C4 prostate cancer cells
Experimental: Creation of stable C-AR-Y reporter cell lines. Cell lines listed above were either transfected with a plasmid or a virus containing the CFP-AR-YFP construct preceding an IRES and hygromycin resistance gene and clonal stable cell lines selected. Qualification criteria for the transfected cell lines were described by Jones et al, ACS Chem Biol, 3(7):412-8 (2008).
Screen for AR-modulators. Screening was performed essentially as described by Jones et al, ACS Chem Biol, 3(7):412-8 (2008). Briefly, C-AR-Y reporter GTI-7 were transferred to 96 well plates and treated with library compounds for 24 hours. […] The compounds to be tested were from the NCI/DTP Open Chemical Repository's Approved Oncology Drugs Set II, Diversity Set II and Mechanistic Set. […] After 24 hours, medium was aspirated and FRET was measured as previously described using a monochromator-based fluorescence plate reader (M1000, Tecan, Inc.). Jones et al, ACS Chem Biol, 3(7):412-8 (2008). […]
In order to identify potential cell-type selective AR modulators, the FRET-based assay of AR conformation change was utilized. […] This produces an accurate and quantifiable read-out of AR activity. […] Candidate hits were then further evaluated by dose response. […] In addition to FRET, AR transcriptional activity was also assessed in several cell lines by transfecting cells with a luciferase reporter driven by the human PSA promoter. […]

## C=C(NC(=O)C(=C)NC(=O)c1csc(C2=N[C@@H]3c4csc(n4)[C@H]4NC(=O)c5csc(n5)[C@H]([C@](C)(O)[C@@H](C)O)NC(=O)[C@H]5CSC(=N5)/C(=C/C)NC(=O)[C@H]([C@@H](C)O)NC(=O)c5csc(n5)[C@]3(CC2)NC(=O)[C@H](C)NC(=O)C(=C)NC(=O)C(=C)NC(=O)[C@H](C(C)C)N[C@@H]2C=Cc3c([C@H](C)O)cc(nc3[C@H]2O)C(=O)O[C@@H]4C)n1)C(N)=O [NSC285116, siomycin A]
Listed as Siomycin A
  AR inhibitor activity in words: little to no activity
Listed as siomycin
  AR inhibitor activity in words: not as sensitive
